Columns and labels:
[1] = test system: psychomotor seizures induced by a 32 mA, 6 Hz stimulus in mice; experiment: Psychomotor seizure test 6 Hz (32 mA); format: in vivo
Procedure: (§1) Initial screening was performed on groups of 4 mice. The mean effective dose (ED50) in a given test and the neurotoxic dose in the rotarod test (TD50) were estimated on the basis of the results obtained on 3-4 groups of animals consisting of 6 animals.
(§2) In the psychomotor seizure test (6 Hz test), seizures were induced by a 32 mA and/or 44 mA electrical stimulus of a frequency of 6 pulses per second. An electrical pulse was generated using an electric shock generator (ECT Unit 57800; Ugo Basile, Gemonio, Italy) and delivered to the animal using corneal electrodes. Before starting the test, the eye surface was gently moistened with a solution of local anesthetic (1% lidocaine solution). The study was conducted 30 minutes/2 hours after intraperitoneal administration of the compounds at various doses. An electrical stimulus was delivered continuously for a period of 3 seconds, followed by observation of the animal for a period of 10 seconds. During the experiment, the number of animals with an episode of psychomotor convulsions was counted: motor inhibition, staggering, maintaining a sitting posture, forelimb clonus, twitching of the vibrissae and Straub-tail were observed (Leclercq, K.; Kaminski, R.M. Epilepsia 2015, 56, 310-318).
(§3) The ED50 (effective dose) and TD50 (toxic dose) values along with the corresponding 95% confidence limits were calculated based on the Litchfield and Wilcoxon method (Litchfield, J.T.; Wilcoxon, F. J. Pharmacol. Exp. Ther. 1949, 96, 99-113). To perform a statistical evaluation of the results in the scPTZ test, one-way ANOVA variance analysis followed by Dunnett's post hoc test were used. The values were considered statistically significant if p<0.05.

[2] = test system: maximal electroshock seizures in mice; experiment: Maximal electroshock seizure test (MES); format: in vivo
Procedure: as §1
In the maximal electroshock seizure test (MES), the seizures were induced by 500 V, 25 mA electrical stimulus of 0.2 s in duration. The electrical pulse was generated using an electric shock generator (Rodent shocker, Type 221, Hugo Sachs Elektronik, Germany) and delivered to the animal using electrodes placed on the auricles. The study was conducted 30 minutes/2 hours after intraperitoneal administration of the compounds at various doses. During the experiment, the number of animals that experienced a seizure episode in the form of hindlimb tonic extension was counted (Łuszczki, J.J. et al. Fundam. Clin. Pharmacol. 2008, 22, 69-74).
as §3

[3] = test system: psychomotor seizures induced by a 44 mA, 6 Hz stimulus in mice; experiment: Psychomotor seizure test 6 Hz (44 mA); format: in vivo; conditions: in mg/kg
Procedure: as §1, §2, §3

[4] = test system: motor coordination of mice; experiment: Rotarod test (motor coordination, acute neurotoxicity); format: in vivo; conditions: in mg/kg
Procedure: as §1
The effect of the tested compounds on motor coordination was assessed in the rotarod test (May Commat, RR 0711 RotaRod, Turkey). The day before the actual experiment, the mice were trained on a rod rotating at 10 revolutions per minute (rpm) for 3 minutes. The experiment was performed 30 minutes and 2 hours after administration of the compounds. The motor coordination of the animals was tested at the speed of the rotating rod: 10 rpm for 60 seconds. The measure of neurotoxicity was the inability to stay on the rod for a given time (Łuszczki, J.J. et al. Eur. Neuropsychopharmacol. 2005, 6, 609-616).
as §3

[5] = test system: human liver microsomes (HLMs); experiment: In vitro metabolic stability, human liver microsomes; format: in vitro ADME; conditions: 120-minute incubation with HLMs
Procedure: Metabolic stability assessment was performed using mouse (MLMs) and human (HLMs) liver microsomes purchased from Sigma-Aldrich (St. Louis, MO, USA). The detailed methodology is described in the literature (Kamiński et al. J. Med. Chem. 2015, 58, 5274-5286). The reaction mixture was prepared by mixing […] of the tested compound with mouse or human microsomes (1 mg/mL) in 10 mM TRIS-HCl buffer. The reaction mixture was pre-incubated for 5 min at 37° C. After the initial incubation, 50 μL of the NADPH Regeneration System (Promega, Madison, WI, USA) was added to initiate the reaction. The reaction mixture was then incubated for 120 min at 37° C. 200 μL of cold extra pure methanol was added to complete the reaction. The mixture was then centrifuged at 14,000 g for 15 min and the supernatants were analyzed using a Waters ACQUITY™ TQD LC/MS system with a TQ detector (Waters, Milford, USA). Each experiment was performed in triplicate.

[6] = 0.5 h after i.p. administration
[7] = 2.0 h after i.p. administration

Compound	ED50 6 Hz (32 mA) [1, 6]	ED50 6 Hz (32 mA) [1, 7]	ED50 MES [2, 6]	ED50 MES [2, 7]	ED50 6 Hz (44 mA) [3, 6]	ED50 6 Hz (44 mA) [3, 7]	TD50 Rotarod [4, 6]	TD50 Rotarod [4, 7]	metabolic stability [5]
[2H]C1([2H])C(=O)N([C@H](C)C(=O)NCc2ccccc2F)C(=O)C1([2H])[2H] [d4-(R)-4, (R)—N-(2-fluorobenzyl)-2-(2,5-dioxopyrrolidin-1-yl-3,3,4,4-d4) propanamide]	12.8 mg/kg	19.8 mg/kg	20.5 mg/kg	25.3 mg/kg	51.6	36.3	127.2	>300	high metabolic stability
[2H]C([2H])(NC(=O)[C@@H](C)N1C(=O)C([2H])([2H])C([2H])([2H])C1=O)c1ccccc1 [d6-(R)-5, (R)-2-(2,5-dioxopyrrolidin-1-yl-3,3,4,4-d4)-N-(phenylmethyl-d2) propanamide]			33.4 mg/kg	28.7 mg/kg	85.6	50.8	>100	>300	high metabolic stability
[2H]C([2H])(NC(=O)[C@@H](C)N1C(=O)C([2H])([2H])C([2H])([2H])C1=O)c1ccccc1F [d6-(R)-7, (R)-2-(2,5-dioxopyrrolidin-1-yl-3,3,4,4-d4)-N-((2-fluorophenyl)methyl-d2) propanamide]	12.5 mg/kg	13.4 mg/kg			25.1	33.5	>100	>300	high metabolic stability
[2H]c1c([2H])c([2H])c(CNC(=O)[C@@H](C)N2C(=O)C([2H])([2H])C([2H])([2H])C2=O)c([2H])c1[2H] [d9-(R)-2, (2R)-2-(2,5-dioxopyrrolidin-1-yl-3,3,4,4-d4)-N-((phenyl-d5)methyl) propanamide]	18.2 mg/kg	68 mg/kg	45 mg/kg	57.7 mg/kg	78.3	109.8	165.4	>300	high metabolic stability
[2H]c1c([2H])c([2H])c(C([2H])([2H])NC(=O)[C@@H](C)N2C(=O)C([2H])([2H])C([2H])([2H])C2=O)c([2H])c1[2H] [d11-(R)-6, (R)-2-(2,5-dioxopyrrolidin-1-yl-3,3,4,4-d4)-N-((phenyl-d5)methyl-d2) propanamide]			29.5 mg/kg	33.8 mg/kg	57.6	70.4	>100	>300	high metabolic stability

Reference: US20250042848A1, “DEUTERATED FUNCTIONALIZED DERIVATIVES OF alpha-ALANINE, IN [sequence] FOR THE TREATMENT OF NEUROLOGICAL DISEASES” (UNIWERSYTET JAGIELLONSKI, priority 2021, published 2025)
